Patent publication US20020081602A1, “Method for the detection of compounds that modulate the effects of the obese (ob) protein” (SmithKline Beecham p.1.c., priority 1996, published 2002)

Columns and labels:
[1] = test system: rat-1 fibroblasts over expressing insulin receptors; conditions: Kroder et al. 1996; cited from earlier work
WRL68 cells = experiment: c-fos expression by northern blotting in serum-starved WRL68 cells; format: cell-based; conditions: treated 5 minutes to 2 hours, normalised to beta-actin
Procedure: 7. Detection of increased c-fos mRNA after treatment with leptin. C-fos mRNA may be detected by Northern, RT-PCR or “slot blot” analysis.
WRL68 cells were grown to confluence in their standard culture medium in the simultaneous presence of 10% foetal calf serum. At confluence the cells were transferred to serum-free medium for a minimum of 18 hours (lowering the serum concentration may also produce similar results). Serum-starved cells were then treated with leptin or with serum (as positive control for c-fos upregulation) for varying time periods from 5 minutes to 2 hours. RNA was extracted from the cells and subjected to gel electrophoresis and northern blotting. The blotted RNA was then probed with a c-fos labelled probe to analyze the expression of c-fos, the data being normalised by analysing the expression of beta-actin. […] Therefore WRL68 cells is expected to be suitable for identification of leptin mimetics. Other cell lines could also be identified via analysis of c-fos expression in response to leptin.

Leptin: secreted hormone that acts as signal from adipose tissue to other organs to regulate weight and energy balance
insulin stimulated phosphorylation of the insulin receptor and insulin receptor substrate-I [1]: inhibition | c-fos expression (WRL68 cells): significantly enhanced
